Experimental data published in patent EP1885364B1, “HALOGENATED QUINDOLINE DIMERS FOR THE TREATMENT OF CANCER” (Crystax Pharmaceuticals, S.L., priority 2005, dated 2006).

Columns and labels:
Format in all cases: cell-based
[1] = test system: Jurkat clon E6-1 leukemia; assay: MTT in vitro cytotoxicity, Jurkat; settings: Homo sapiens, Jurkat cells, concentrations until 100 µM, incubation until 72 h
Source text: (§1) IC50 is the compound concentration at which 50% of a specific cell type die in a standardized assay, and thus a measure of cytotoxicity. Jurkat is a human leukaemia T cell line, GLC-4 is a human small-cell lung-carcinoma cell line and NIH-3T3 is a rat non-cancerous cell line. [drawing 3]
(§2) These compounds have been tested in a greater number of different cell lines. IC50 is the compound concentration at which 50% of a specific cell type die in a standardized assay, and thus a measure of cytotoxicity. Jurkat is a human leukaemia T cell line, GLC-4 is a human small-cell lung-carcinoma cell line, NIH-3T3 is a rat non-cancerous cell line, K-562 is a human chronic myelogenous leukemia cell line, A549 is a human lung carcinoma cell line, RPMI-1788 is a human leukocytes of peripherial blood from healthy […] cell line, MCF-7 is a human breast adenocarcinoma cell line, Capan-2 is a human pancreas adenocarcinoma cell line, Colo320HSR is a human colon carcinoma cell line, SW-837 is a human rectum adenocarcinoma cell line, IM-9 is a human bone marrow myeloma cell line, IMR-32 is a human neuroblastoma cell line and MT-4 is a human mixed heart's and peripheral blood's lymphocytes of patients with T-cell leukemia cell line. Table 2. Biological activities of IIIa-IIIg.
(§3) The in vitro cytotoxicity of the compounds of the present invention was evaluated by colorimetric assays with tetrazol salts (MTT) on Jurkat clon E6-1 leukemia, on GLC-4 clon carcinoma, on K-562 chronic myelogenous leukemia, on A549 lung carcinoma, on RPMI-1788 leukocytes of peripherial blood from healthy […], on MCF-7 breast adenocarcinoma, on Capan-2 pancreas adenocarcinoma, on Colo320HSR colon carcinoma, on SW-837 rectum adenocarcinoma, on IM-9 bone marrow myeloma, on IMR-32 neuroblastoma and on MT-4 mixed heart's and peripheral blood's lymphocytes of patients with T-cell leukemia human cell lines, according to the protocol described by Mosmann et al. (J. Immunol. Methods, 1983,65, 55-63) incorporated herein by reference. In all cases the concentrations used were until 100 µM and times of incubation until 72 h. […] Table 3. Biological activities.

GLC-4 = assay: MTT in vitro cytotoxicity, GLC-4; settings: Homo sapiens, GLC4, GLC-4 cells, concentrations until 100 µM, incubation until 72 h
Source text: as §1, §2, §3

NIH-3T3 = assay: Cytotoxicity in non-cancerous cell line NIH-3T3; settings: NIH3T3; NIH-3T3 non-cancerous cell line
Source text: as §1, §2

[2] = test system: RPMI-1788 leukocytes of peripherial blood from healthy person; assay: MTT in vitro cytotoxicity, RPMI-1788; settings: Homo sapiens, RPMI-1788 cells (from healthy person), concentrations until 100 µM, incubation until 72 h
Source text: as §2, §3

[3] = test system: K-562 chronic myelogenous leukemia; assay: MTT in vitro cytotoxicity, K-562; settings: Homo sapiens, K562, K-562 cells, concentrations until 100 µM, incubation until 72 h
Source text: as §2, §3

A549 lung carcinoma = assay: MTT in vitro cytotoxicity, A549; settings: Homo sapiens, A549 cells, concentrations until 100 µM, incubation until 72 h
Source text: as §2, §3

IMR-32 neuroblastoma = assay: MTT in vitro cytotoxicity, IMR-32; settings: Homo sapiens, IMR-32 cells, concentrations until 100 µM, incubation until 72 h
Experimental: (§4) These compounds have been tested in a greater number of different cell lines. IC50 is the compound concentration at which 50% of a specific cell type die in a standardized assay, and thus a measure of cytotoxicity. […]
(§5) The in vitro cytotoxicity of the compounds of the present invention was evaluated by colorimetric assays with tetrazol salts (MTT) on Jurkat clon E6-1 leukemia, on GLC-4 clon carcinoma, on K-562 chronic myelogenous leukemia, on A549 lung carcinoma, on RPMI-1788 leukocytes of peripherial blood from healthy […], on MCF-7 breast adenocarcinoma, on Capan-2 pancreas adenocarcinoma, on Colo320HSR colon carcinoma, on SW-837 rectum adenocarcinoma, on IM-9 bone marrow myeloma, on IMR-32 neuroblastoma and on MT-4 mixed heart's and peripheral blood's lymphocytes of patients with T-cell leukemia human cell lines, according to the protocol described by Mosmann et al. (J. Immunol. […]

IM-9 bone marrow myeloma = assay: MTT in vitro cytotoxicity, IM-9; settings: Homo sapiens, IM-9 cells, concentrations until 100 µM, incubation until 72 h
Experimental: as §4, §5

[4] = test system: MT-4 mixed heart's and peripheral blood's lymphocytes of patients with T-cell leukemia; assay: MTT in vitro cytotoxicity, MT-4; settings: Homo sapiens, MT4, MT-4 cells, concentrations until 100 µM, incubation until 72 h
Experimental: as §4, §5

[5] = test system: SW-837 rectum adenocarcinoma; assay: MTT in vitro cytotoxicity, SW-837; settings: Homo sapiens, SW837, SW-837 cells, concentrations until 100 µM, incubation until 72 h
Experimental: as §4, §5

[6] = test system: Colo320HSR colon carcinoma; assay: MTT in vitro cytotoxicity, Colo320HSR; settings: Homo sapiens, Colo-320HSR cells, concentrations until 100 µM, incubation until 72 h
Experimental: as §4, §5

[7] = test system: MCF-7 breast adenocarcinoma; assay: MTT in vitro cytotoxicity, MCF-7; settings: Homo sapiens, MCF7, MCF-7 cells, concentrations until 100 µM, incubation until 72 h
Experimental: as §4, §5

[8] = test system: Capan-2 pancreas adenocarcinoma; assay: MTT in vitro cytotoxicity, Capan-2; settings: Homo sapiens, Capan-2 cells, concentrations until 100 µM, incubation until 72 h
Experimental: as §4, §5

Row | SMILES | IC50 [1] [µM] | IC50 (GLC-4) [µM] | IC50 (NIH-3T3) [µM] | IC50 [2] [µM] | IC50 [3] [µM] | IC50 (A549 lung carcinoma) [µM] | IC50 (IMR-32 neuroblastoma) [µM] | IC50 (IM-9 bone marrow myeloma) [µM] | IC50 [4] [µM] | IC50 [5] [µM] | IC50 [6] [µM] | IC50 [7] [µM] | IC50 [8] [µM]
1 | CN(CCCNC(=O)c1c2ccccc2nc2c1[nH]c1ccccc12)CCCNC(=O)c1c2ccccc2nc2c1[nH]c1ccccc12 [Ia, reference compound] | 0.97 | 1.45 | 6.77 | – | – | – | – | – | – | – | – | – | –
2 | O=C(O)c1c2cc(F)ccc2nc2c1[nH]c1ccccc12 [IIb] | 13 | 12 | – | – | – | – | – | – | – | – | – | – | –
3 | CN(CCCNC(=O)c1c2cc(Br)ccc2nc2c1[nH]c1ccccc12)CCCNC(=O)c1c2cc(Br)ccc2nc2c1[nH]c1ccccc12 [IIIc, N,N'-(4-methyl-4-azaheptamethylene)-di-(-2-bromo-10H-indolo[3,2-b]quinoline)-11,11'-carboxamide] | 0.8 | – | – | 9.1 | – | – | – | – | – | – | – | – | –
4 | CN(CCCNC(=O)c1c2ccccc2nc2c1[nH]c1ccccc12)CCCNC(=O)c1c2cc(F)ccc2nc2c1[nH]c1ccccc12 [IIIf, N-[3-[[3-[11-((2-fluoro-10H-indolo[3,2-b]quinoline)carbonyl)amino]-propyl]-methylamino]propyl]-10H-indolo[3,2-b]quinoline-11-carboxamide] | 0.2 | – | – | 1.7 | 2.8 | 1.6 | – | – | – | – | – | – | –
5 | O=C(O)c1c2cc(Cl)ccc2nc2c1[nH]c1ccccc12 [IIa] | > 25 | 15.7 | – | – | – | – | – | – | – | – | – | – | –
6 | CN(CCCNC(=O)c1c2cc(Cl)ccc2nc2c1[nH]c1ccccc12)CCCNC(=O)c1c2cc(Cl)ccc2nc2c1[nH]c1ccccc12 [IIIa, N,N'-(4-methyl-4-azaheptamethylene)-di-(-2-chloro-10H-indolo[3,2-b]quinoline)-11,11'-arboxamide] | 0.09 | 0.16 | 11.2 | 3 | 0.65 | 12.2 | 0.9 | 4.6 | 4.5 | 6.2 | 0.45 | 3.4 | 20.1
7 | CN(CCCNC(=O)c1c2cc(F)ccc2nc2c1[nH]c1ccccc12)CCCNC(=O)c1c2cc(Cl)ccc2nc2c1[nH]c1ccccc12 [IIIe, N-[3-[[3-[11-((2-chloro-10H-indolo[3,2-b]quinoline)carbonyl)amino]-propyl]-methylamino]propyl]-2-fluoro-10l-l-indolo[3,2-b]quinoline-11-carboxamide] | 0.5 | – | – | 2.9 | 6.1 | 11.6 | – | – | – | – | – | – | –
8 | CN(CCCNC(=O)c1c2cc(F)ccc2nc2c1[nH]c1ccccc12)CCCNC(=O)c1c2cc(F)ccc2nc2c1[nH]c1ccccc12 [IIIb, N,N'-(4-methyl-4-azaheptamethylene)-di-(-2-fluoro-10H-indolo[3,2-b]quinoline)-11,11'-carboxamide] | 0.5 | – | 64.3 | 5.3 | 1.1 | 10 | 0.7 | 7.5 | 9 | 17.9 | 3.2 | 4.8 | 25.5
9 | CN(CCCNC(=O)c1c2cc(Cl)ccc2nc2c1[nH]c1ccccc12)CCCNC(=O)c1c2cc(Br)ccc2nc2c1[nH]c1ccccc12 [IIId, N-[3-[[3-[11-((2-bromo-10H-indolo[3,2-b]quinoline)carbonyl)amino]-propyl]-methylamino]propyl]-2-chloro-10H-indolo[3,2-b]quinoline-11-carboxamide] | 0.6 | – | – | 3.5 | 5.3 | 12.9 | – | – | – | – | – | – | –
10 | CN(CCCNC(=O)c1c2ccccc2nc2c1[nH]c1ccccc12)CCCNC(=O)c1c2cc(Cl)ccc2nc2c1[nH]c1ccccc12 [IIIg, N-[3-[[3-[11-((2-chloro-10H-indolo[3,2-b]quinoline)carbonyl)amino]-propyl]-methylamino]propyl]-10H-indolo[3,2-b]quinoline-11-carboxamide] | 0.7 | – | – | 3.2 | 5.8 | 6.2 | – | – | – | – | – | – | –
11 | O=C(O)c1c2cc(Br)ccc2nc2c1[nH]c1ccccc12 [IIc] | > 25 | – | – | – | – | – | – | – | – | – | – | – | –
